For one data set, the target named is T1, PDE4B2 (Homo sapiens, UniProt Q07343).
T1 construct: made in house; host or cells: SF21 insect cells (baculovirus prepared in SF9 cells; pCR-Bac vector)
Briefly: Inhibition of PDE4B2 activity, modified [3H]cAMP SPA enzyme assay. Type of data set: biochemical. The conditions noted are these: recombinant PDE4B2 (GB no. M97515) expressed in SF21 cells; 0.5 μM cAMP; 15 min at 37° C.; read-out: PDE4 Inhibition [measured as −logIC50 (mol/l)] (converted). As for the experimental part: PDE4B2 (GB no. M97515) was a gift of Prof. M. Conti (Stanford University, USA). It was amplified from the original plasmid (pCMV5) via PCR with primers Rb9 (5′-[…]-3′) and Rb10 (5′-[…]-3′) and cloned into the pCR-Bac vector (Invitrogen, Groningen, NL).
The recombinant baculovirus was prepared by means of homologous recombination in SF9 insect cells. The expression plasmids were cotransfected with Bac-N-Blue (Invitrogen, Groningen, NL) or Baculo-Gold DNA (Pharmingen, Hamburg) using a standard protocol (Pharmingen, Hamburg). Wt virus-free recombinant virus supernatants were selected using plaque assay methods. After that, high-titre virus supernatants were prepared by amplifying 3 times. PDE4B2 was expressed in SF21 cells by infecting 2×10^6 cells/ml with an MOI (multiplicity of infection) between 1 and 10 in serum-free SF900 medium (Life Technologies, Paisley, UK). The cells were cultured at 28° C. for 48-72 hours, after which they were pelleted for 5-10 min at 1000 g and 4° C.
The SF21 insect cells were resuspended, at a concentration of approx. 10^7 cells/ml, in ice-cold (4° C.) homogenization buffer (20 mM Tris, pH 8.2, containing the following additions: 140 mM NaCl, 3.8 mM KCl, 1 mM EGTA, 1 mM MgCl2, 10 mM β-mercaptoethanol, 2 mM benzamidine, 0.4 mM Pefablock, 10 μM leupeptin, 10 μM pepstatin A, 5 μM trypsin inhibitor) and disrupted by ultrasonication. The homogenate was then centrifuged for 10 min at 1000×g and the supernatant was stored at −80° C. until sub-sequent use (see below). The protein content was determined by the Bradford method (BioRad, Munich) using BSA as the standard.
PDE4B2 activity was inhibited by the compounds according to the invention in a modified SPA (scintillation proximity assay) test, supplied by Amersham Biosciences (see procedural instructions “phosphodiesterase [3H]cAMP SPA enzyme assay, code TRKQ 7090”), carried out in 96-well microtitre plates (MTP's). The test volume is 100 μl and contains 20 mM Tris buffer (pH 7.4), 0.1 mg of BSA (bovine serum albumin)/ml, 5 mM Mg^2+, 0.5 μM cAMP (including about 50,000 cpm of [3H]cAMP), 1 μl of the respective substance dilution in DMSO and sufficient recombinant PDE (1000×g supernatant, see above) to ensure that 10-20% of the cAMP is converted under the said experimental conditions. […] After a preincubation of 5 min at 37° C., the reaction is started by adding the substrate (cAMP) and the assays are incubated for a further 15 min; after that, they are stopped by adding SPA beads (50 μl). In accordance with the manufacturer's instructions, the SPA beads had previously been resuspended in water, but were then diluted 1:3 (v/v) in water; the diluted solution also contains 3 mM IBMX to ensure a complete PDE activity stop. After the beads have been sedimented (>30 min), the MTP's are analyzed in commercially available luminescence detection devices. The corresponding IC50 values of the compounds for the inhibition of PDE4B2 activity are determined from the concentration-effect curves by means of non-linear regression.

Structures are written as SMILES.

T1 sequence (Q07343 1-564 isoform Q07343-2): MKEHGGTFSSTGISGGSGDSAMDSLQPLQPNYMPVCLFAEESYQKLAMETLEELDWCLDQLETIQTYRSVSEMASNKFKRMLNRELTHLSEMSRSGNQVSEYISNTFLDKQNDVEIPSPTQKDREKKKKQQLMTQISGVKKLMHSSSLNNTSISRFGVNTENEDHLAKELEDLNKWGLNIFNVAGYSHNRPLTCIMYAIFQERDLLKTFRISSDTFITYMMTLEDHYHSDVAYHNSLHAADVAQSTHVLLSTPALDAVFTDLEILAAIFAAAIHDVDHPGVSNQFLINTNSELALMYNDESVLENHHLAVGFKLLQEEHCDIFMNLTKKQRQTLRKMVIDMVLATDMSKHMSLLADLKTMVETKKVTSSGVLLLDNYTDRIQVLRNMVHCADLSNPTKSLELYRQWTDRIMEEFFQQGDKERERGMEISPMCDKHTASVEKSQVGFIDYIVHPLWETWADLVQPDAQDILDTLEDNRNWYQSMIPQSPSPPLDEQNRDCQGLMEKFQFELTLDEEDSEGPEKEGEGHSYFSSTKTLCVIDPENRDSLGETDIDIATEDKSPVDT

The term melting point denotes the temperature, or range, at which the solid turns liquid. Compound `COc1ccc(C2=NN(c3ccc(C(=O)O)cc3)C(=O)C(C)(C)C2)cc1OC` [Compound 1, 4-(3-{3,4-dimethoxyphenyl}-5,5-dimethyl-6-oxo-5,6-dihydro-4H-pyridazin-1-yl)-benzoic acid] showed a melting point of 196 to 198 °C. Also, the IC50 on PDE4B2 is 32.4 nM.

`COc1ccc(C2=NN(c3ccc(OCc4ccccc4)cc3)C(=O)C(C)(C)C2)cc1OC` [Compound 2, 2-(4-Benzyloxy-phenyl)-6-(3,4-dimethoxy-phenyl)-4,4-dimethyl-4,5-dihydro-2H-pyridazin-3-one] registered a melting point of 137 to 138 °C. The IC50 at PDE4B2 is 3.98 nM.

Turning to `COc1ccc(C2=NN(c3ccc(C(=O)N4CCN(CCN5CCOCC5)CC4)cc3)C(=O)C(C)(C)C2)cc1OC.Cl.Cl` [Compound 3, 6-(3,4-Dimethoxy-phenyl)-4,4-dimethyl-2-(4-{1-[4-(2-morpholin-4-yl-ethyl)-piperazin-1-yl]-methanoyl}-phenyl)-4,5-dihydro-2H-pyridazin-3-one dihydrochloride], the melting point was 249 °C (dec.). Further, the IC50 at PDE4B2 was 11.2 nM.

The compound `COc1ccc(C2=NN(c3ccc(C(=O)N4CCN(c5ccncc5)CC4)cc3)C(=O)C(C)(C)C2)cc1OC.Cl.Cl` [Compound 4, 6-(3,4-Dimethoxy-phenyl)-4,4-dimethyl-2-{4-[1-(4-pyridin-4-yl-piperazin-1-yl)-methanoyl]-phenyl}-4,5-dihydro-2H-pyridazin-3-one dihydrochloride] registered a melting point of 223 to 225 °C. The IC50 at PDE4B2 is 7.76 nM.

`COc1ccc(C2=NN(c3ccc(O)cc3)C(=O)C(C)(C)C2)cc1OC` [Compound 5, 6-(3,4-Dimethoxy-phenyl)-2-(4-hydroxy-phenyl)-4,4-dimethyl-4,5-dihydro-2H-pyridazin-3-one]: the melting point fell in the range of 176 to 178 °C. At PDE4B2, the IC50 is 6.03 nM.

`COc1ccc(C2=NN(c3ccc(C(=O)N4CCOCC4)cc3)C(=O)C(C)(C)C2)cc1OC` [Compound 6, 6-(3,4-Dimethoxy-phenyl)-4,4-dimethyl-2-[4-(1-morpholin-4-yl-methanoyl)-phenyl]-4,5-dihydro-2H-pyridazin-3-one] displayed a melting point of 165 to 166 °C. Further, the IC50 at PDE4B2 was 1.74 nM.

In turn, `COc1ccc(C2=NN(c3ccc(OCC(N)=O)cc3)C(=O)C(C)(C)C2)cc1OC` [Compound 7, 2-{4-[3-(3,4-Dimethoxy-phenyl)-5,5-dimethyl-6-oxo-5,6-dihydro-4H-pyridazin-1-yl]-phenoxy}-acetamide] registered a melting point of 184 to 187 °C. The IC50 at PDE4B2 was 10.5 nM.

`COc1ccc(C2=NN(c3ccc(C(=O)N4CCN(CC(=O)N5CCCC5)CC4)cc3)C(=O)C(C)(C)C2)cc1OC.Cl` [Compound 8, 6-(3,4-Dimethoxy-phenyl)-4,4-dimethyl-2-(4-{1-[4-(2-oxo-2-pyrrolidin-1-yl-ethyl)-piperazin-1-yl]-methanoyl}-phenyl)-4,5-dihydro-2H-pyridazin-3-one hydrochloride]: the melting point is 144 to 146 °C. The IC50 at PDE4B2 is 7.59 nM.

For `COc1ccc(C2=NN(c3ccc(OCC(=O)N4CCN(C)CC4)cc3)C(=O)C(C)(C)C2)cc1OC.Cl` [Compound 9, 6-(3,4-Dimethoxy-phenyl)-4,4-dimethyl-2-{4-[2-(4-methyl-piperazin-1-yl)-2-oxo-ethoxy]-phenyl}-4,5-dihydro-2H-pyridazin-3-one hydrochloride], the melting point was 198 to 202 °C.

`COc1ccc(C2=NN(c3ccc(OCC(=O)N4CCOCC4)cc3)C(=O)C(C)(C)C2)cc1OC` [Compound 10, 6-(3,4-Dimethoxy-phenyl)-4,4-dimethyl-2-[4-(2-morpholin-4-yl-2-oxo-ethoxy)-phenyl]-4,5-dihydro-2Hpyridazin-3-one] registered a melting point of 74 to 79 °C. For the same compound, the IC50 on PDE4B2 was 15.5 nM.

`COc1ccc(C2=NN(c3cccc(C(=O)O)c3)C(=O)C(C)(C)C2)cc1OC` [Compound 11, 3-[3-(3,4-Dimethoxy-phenyl)-5,5-dimethyl-6-oxo-5,6-dihydro-4H-pyridazin-1-yl]-benzoic acid]: the melting point is 165 to 167 °C.

Compound `COc1ccc(C2=NN(c3cccc(C(=O)N4CCOCC4)c3)C(=O)C(C)(C)C2)cc1OC` [Compound 13, 6-(3,4-Dimethoxy-phenyl)-4,4-dimethyl-2-[3-(1-morpholin-4-yl-methanoyl)-phenyl]-4,5-dihydro-2H-pyridazin-3-one] registered a melting point of 108 to 109 °C.

In turn, `COc1ccc(C2=NN(c3ccc(CC(=O)N4CCOCC4)cc3)C(=O)C(C)(C)C2)cc1OC` [Compound 14, 6-(3,4-Dimethoxy-phenyl)-4,4-dimethyl-2-[4-(2-morpholin-4-yl-2-oxo-ethyl)-phenyl]-4,5-dihydro-2H-pyridazin-3-one] returned a melting point of 165 to 167 °C.

Regarding `COc1ccc(C2=NN(c3ccc(Br)cc3)C(=O)C(C)(C)C2)cc1OC` [Compound 15, 2-(4-Bromo-phenyl)-6-(3,4-dimethoxy-phenyl)-4,4-dimethyl-4,5-dihydro-2H-pyridazin-3-one], the melting point was in the range of 123 to 124 °C.

As to `COc1ccc(C2=NN(c3ccc(N4CCOCC4)cc3)C(=O)C(C)(C)C2)cc1OC` [Compound 16, 6-(3,4-Dimethoxy-phenyl)-4,4-dimethyl-2-(4-morpholin-4-yl-phenyl)-4,5-dihydro-2H-pyridazin-3-one], the melting point lay in the range of 178 to 179 °C.
